Results as given in patent publication US5643954A, “Method of preventing and alleviating stress in a healthy mammal in need thereof” (priority 1993, dated 1997).

What was measured:
Corazol convulsions = assay: testings with Corazolin (Corazol), mice; assay type: in vivo; settings: 150 mg/kg of weight
[1] = testings with Corazolin (Corazol), mice; assay type: in vivo; settings: mouse, in vivo; 150 mg/kg of weight; read-out: death of the animals
[2] = assay type: in vivo; settings: in words
hexenal sleep = assay: comparative interaction test with hexenal, rats; assay type: in vivo; settings: for Hexanal sleep duration: M ± m
Corazol twitches = assay: comparative interaction test with Corazol, rats; assay type: in vivo; settings: M ± m
[3] = system: bioelectric activity of rats' brain; assay: spontaneous bioelectrical activity of rats' brain (EEG, implanted electrodes); assay type: in vivo; settings: 90 mg/kg
[4] = orientation motive activity of mice, automated registration of movements; assay type: in vivo, mice (male); settings: for Number of movements in 10 min in register: M ± m
Method: Experiments were conducted in vivo on male mice weighing 18-22 g and male rats weighing 200-250 g, as well as in vitro on the isolated organs: a guinea pig's ileum and a rat's seminal effervesces.

Compound | time to death of the animals (Corazol convulsions) [min] | mortality [1] [%] | tonico-extensor component of Corazol and strychnine twitches and electrical shock [2] | Hexanal sleep duration (hexenal sleep; 100 mg/kg) [min] | Hexanal sleep duration (hexenal sleep; 200 mg/kg) [min] | hexenal sleep (hexenal sleep; in words) | Corazol twitches, latent period (Corazol twitches; 100 mg/kg) [min] | Corazol twitches, latent period (Corazol twitches; 200 mg/kg) [min] | Maximal effect appearance time from the start of experiment [3] [min] | Nature of effect [3] | Nature of effect, effective for [3] | Index, fast activ. ([3]; M ± m) [%] | Index, slow activ. ([3]; M ± m) [%] | Number of movements in 10 min in register ([4]; 100 mg/kg intraperitoneally) | Number of movements in 10 min in register ([4]; 200 mg/kg intraperitoneally) | Number of movements in 10 min in register ([4]; 500 mg/kg intraperitoneally) | motor activity ([4]; in words)
C1CCc2nnnn2CC1 [Corazolin, reference compound] | 2 to 4 | 100 | – | – | – | – | – | – | – | – | – | – | – | – | – | – | –
NCC(CC(=O)O)c1ccccc1 (centres unmarked) [phenibut, reference compound] | – | – | reduce the tonico-extensor component of Corazol and strychnine twitches and electrical shock | 110.0 ± 8.3 | 130.0 ± 8.5 | prolong hexenal sleep | 53.0 ± 5.4 | 50.0 ± 2.8 | 40 | Permanent | over 3 hrs | 77 ± 0.9 | 87 ± 3.1 | 434 ± 4.4 | 186 ± 8.7 | 19 ± 3.0 | sharply inhibit motor activity as a dose is increased
